# In US20080311126A1, “Antisense Oligonucleotides Directed to Ribonucleotide Reducatase R2 and Uses Thereof in Combination Therapies for the Treatment of Cancer” (Genesense Technologies, Inc, priority 2004, published 2008):
# Oligonucleotides are written 5' to 3', each unit as a sugar letter and its base; * is a phosphorothioate linkage, no mark a phosphodiester; rarer units and linkages stand in square brackets, end groups in braces. Plain capitals give the bases only. d = 2'-deoxy (DNA)
# Experiments:
# [1] = system: A2058 human melanoma cells; assay: A2058 melanoma xenograft in CD-1 nude mice; type: in vivo; conditions: A2058 (melanoma); Mouse CD-1
# Experimental: A2058 human melanoma cells 1×10^7 cells in 100 μl of PBS) were subcutaneously injected into the right flank of 6-7 week old female CD-1 nude mice. A2058 is a metastatic melanoma cell line. After the size of tumour reached an approximate volume of 100 mm^3, 6 days post tumour cell injection, SEQ ID NO:1 was administered by bolus infusion into the tail vein every other day at 10 mg/kg. Control animals received saline alone for the same period. Antitumour effect of SEQ ID NO:1 was further compared to that of dacarbazine (DTIC) alone or that of SEQ ID NO:1 in combination with DTIC. DTIC was administered intravenously for 5 days in a row from day 6-10 at a dose of 80 mg/kg in 100 μl saline. All treatments were stopped at day 24. A day after the last treatment, tumours were excised from the animals and their weights were measured.
# Hela S3 cells = assay: Relative colony forming efficiency, lipofectin +/- oligonucleotide 4 hours; type: cell-based, human; conditions: Hela S3 cervix carcinoma cells; averages of 2-8 determinations
# Summary of the method: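 HeLa S3 cells were exposed to phosphorothioate antisense oligonucleotide (0.2 μM unless stated) with lipofectin for 4 h, then grown 7–10 days in 10% FBS medium. Methylene blue-stained colonies were counted and expressed as percent survival relative to lipofectin-only controls.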
# [2] = system: PC-3 prostrate cell adenocarcinoma; assay: Relative colony forming efficiency (Example 17, Table 13); type: cell-based, human; conditions: averages of 2-8 determinations
# Summary of the method: (§1)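 Antisense phosphorothioates are tested at 0.2 μM unless stated, transfected with DOTMA/DOPE (2.5 μg) for four hours. Colony counts after methylene blue staining give percent inhibition versus vehicle-lipid controls.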
# [3] = system: MDA-MB-231 breast cell adenocarcinoma; assay: as above; type: cell-based, human; conditions: averages of 2-8 determinations
# Summary of the method: as §1
# [4] = system: T24 bladder cell carcinoma; assay: as above; type: cell-based, human; conditions: averages of 2-8 determinations
# Summary of the method: as §1
# [5] = system: T-47D breast ductal carcinoma; assay: as above; type: cell-based, human; conditions: averages of 2-8 determinations
# Summary of the method: as §1
# A549 lung cell carcinoma = assay: as above; type: cell-based, human; conditions: averages of 2-8 determinations
# Summary of the method: as §1
# [6] = system: Colo320 colon cell adenocarcinoma; assay: as above; type: cell-based, human; conditions: averages of 2-8 determinations
# Summary of the method: as §1
# [7] = system: H596 lung adenosquamous carcinoma cells; assay: as above; type: cell-based, human; conditions: averages of 2-8 determinations
# Summary of the method: as §1
# [8] = system: HepG2 hepatocellular carcinoma; assay: as above; type: cell-based, human; conditions: averages of 2-8 determinations
# Summary of the method: as §1
# [9] = system: HCT116 colon cell carcinoma; assay: as above; type: cell-based, human; conditions: averages of 2-8 determinations
# Summary of the method: as §1
# [10] = system: MDA PaCa-2 pancreatic cell carcinoma; assay: as above; type: cell-based, human; conditions: MIA PaCa-2 pancreatic cell carcinoma; averages of 2-8 determinations
# Summary of the method: as §1
# [11] = system: HT-29 human colon cancer cells; assay: HT-29 colon tumour xenograft in CD-1 nude mice; type: in vivo; conditions: HT-29 (colon); Mouse CD-1; CPT-11 study
# Experimental: HT-29 human colon cancer cells (3×10^6 cells in 100 μl of PBS) were subcutaneously injected into the right flank of 6-7 weeks old female CD-1 nude mice. After the size of tumour reached an approximate volume of 50 mm^3, 4 days post tumour cell injection, mitomycin C was administered by bolus infusion into the tail vein at days 4, 11 and 18 with a dose of 3.5 mg/kg/week. Antitumour effect of mitomycin C was further compared to that of SEQ ID NO:1 in combination with mitomycin C. SEQ ID NO:1 was administered by bolus infusion into the tail vein every day at 6 mg/kg and mitomycin C was administered intravenously at days 4, 11 and 18 with a dose of 3.5 mg/kg/week, one hour after the treatments with SEQ ID NO:1. Control animals received saline alone for the same period as SEQ ID NO:1. All treatments were stopped at day 22. A day after the last treatment, tumours were excised from the animals and their weights were measured.
# HT-29 human colon cancer cells (3×10^6 cells in 100 μl of PBS) were subcutaneously injected into the right flank of 5-6 week old female CD-1 nude mice. After the size of tumour reached an approximate volume of 100 mm^3, 7 days post tumour cell injection, SEQ ID NO:1 was administered by bolus infusion into the tail vein every other day at 10 mg/kg. Control animals received saline alone for the same period. Antitumour effect of SEQ ID NO:1 was further compared to that of CPT-11 alone or that of SEQ ID NO:1 in combination with CPT-11. CPT-11 was administered intraperitoneally for 5 days in a row from […] with a dose of 20 mg/kg in 100 μl saline. All treatments were stopped at day 32. A day after the last treatment, tumours were excised from the animals and their weights were measured.
# HT-29 human colon cancer cells (3×10^6 cells in 100 μl of PBS) were subcutaneously injected into the right flank of 6-7 week old female CD-1 nude mice. Treatments started at day 5 post tumour cell injection, SEQ ID NO:1 and 5-FU were administered as outlined below: • Groups and treatment: • Group 1. Saline treated group: saline:0.1 ml/2 days, i.v.; • Group 2. SEQ ID NO:1 treated group: 10 mg/kg/2 days in 100 μL saline, i.v.; • Group 3. 5-FU treated group:13 mg/kg/5 days/week (one week on and one week off), i.v.; • Group 4. SEQ ID NO:1 plus 5-FU treated group.
# HT-29 human colon cancer cells (3×10^6 cells in 100 μl of PBS) were subcutaneously injected into the right flank of 5-6 week old female CD-1 nude mice. Treatments started 4 days post tumour cell injection, SEQ ID NO: 1 and Capecitabine were administered as outlined below: • Group and Treatment: • Group 1: treated with 0.2 ml vehicle solution for capecitabine, o.p.; • Group 2: treated with 0.1 ml saline, i.v.; • Group 3: treated with 359 mg/kg/day×5/w Capecitabine in 0.2 ml vehicle solution, o.p.; • Group 4: treated with 10 mg/kg/2 days SEQ ID NO:1 in 0.1 ml saline i.v.; • Group 5: treated with 10 mg/kg/2 days SEQ ID NO:1 in 0.1 ml saline, i.v. plus 359 mg/kg/day×5/w capecitabine in 0.2 ml vehicle solution, o.p.
# [12] = system: LS513 multi-drug resistant colon carcinoma cells; assay: LS513 multi-drug resistant colon carcinoma xenograft in SCID mice; type: in vivo, human; conditions: LS513 (colon) multi-drug resistant (CPT-11 sensitive); SCID
# Experimental: LSS13 multi-drug resistant colon carcinoma cells (1×10^7 cells in 100 μl of PBS) were subcutaneously injected into the right flank of 6-7 weeks old female SCID mice. After the size of tumour reached an approximate volume of […], 8 days post tumour cell injection, SEQ ID NO:1 was administered by bolus infusion into the tail vein every other day at 10 mg/kg. Control animals received saline alone for the same period. Antitumour effect of SEQ ID NO:1 was further compared to that of CPT-11 alone or in combination. CPT-11 was administered i.p. for 5 days at a dose of 20 mg/kg/day. Antitumour activities were estimated by the inhibition of tumour volume, which was measured with caliper. Each point represents mean tumour volume calculated from 10 animals per experimental group. Tumour weights were measured after animals were sacrificed at the end of the treatment. These cells are not resistant to CPT-11 which was used as a positive control.
# [13] = system: DU145 human prostatic cancer cells; assay: DU145 prostatic tumour xenograft in SCID mice; type: in vivo; conditions: for Tumour weight as % of saline control: DU145 (prostatic), Mouse SCID
# Experimental: In both experiments, DU145 human prostatic cancer cells (1×10^7 cells in 100 μl of PBS) were subcutaneously injected into the right flank of 6-7 weeks old male SCID mice. After the size of tumour reached an approximate volume of 50 mm^3, 13 FIG. 15A) or 11 (FIG. 15B) days post tumour cell injection, SEQ ID NO:1 was administered by bolus infusion into the tail vein every other day at 10 mg/kg 15 times (FIG. 15A) or 14 times (FIG. 15B), respectively. Control animals received saline alone for the same period. Antitumour effect of SEQ ID NO:1 was further compared to that of mitoxantrone (Novantrone®) alone or in combination. Mitoxantrone was administered intravenously once at the beginning of the treatments at a dose of 2 mg/kg (FIG. 15A) or once a week for four weeks at a reduced dose of 0.8 mg/kg (FIG. 15B). All treatments were stopped at day 42 (FIG. 15A) or 38 (FIG. 15B); respectively. A day after the last treatment, tumours were excised from the animals and their weights were measured.
# [14] = system: PC-3 human prostatic cancer cells; assay: PC-3 prostatic tumour xenograft in SCID mice; type: in vivo
# Experimental: In both experiments, PC-3 human prostatic cancer cells (1×10^7 cells in 100 μl of PBS) were subcutaneously injected into the right flank of 6-7 weeks old male SCID mice. After the size of tumour reached an approximate volume of 50 mm^3, 14 days post tumour cell injection, SEQ ID NO:1 was administered by bolus infusion into the tail vein every other day at 10 mg/kg 18 times (FIG. 14A) or 17 times (FIG. 14B), respectively. Control animals received saline alone for the same period. Antitumour effect of SEQ ID NO:1 was further compared to that of mitoxantrone (Novantrone®) alone or in combination. Mitoxantrone was administered intravenously once at the beginning of the treatments at a dose of 2 mg/kg (FIG. 14A) or once a week for four weeks at a reduced dose of 0.8 mg/kg (FIG. 14B). All treatments were stopped at day 50 (FIG. 14A) or 48 (FIG. 14B), respectively. A day after the last treatment, tumours were excised from the animals and their weights were measured.
Compound,"Reduced relative colony forming efficiency, Hela S3 (% inhibition of colony forming ability) (Hela S3 cells) [%]","Reduced relative colony forming efficiency, PC-3 (% inhibition of colony forming ability) [2] [%]","Reduced relative colony forming efficiency, MDA-MB-231 (% inhibition of colony forming ability) [3] [%]","Reduced relative colony forming efficiency, T-47D (% inhibition of colony forming ability) [5] [%]","Reduced relative colony forming efficiency, A549 (% inhibition of colony forming ability) (A549 lung cell carcinoma) [%]","Reduced relative colony forming efficiency, Co1o320 (% inhibition of colony forming ability) [6] [%]","Reduced relative colony forming efficiency, 11596 (% inhibition of colony forming ability) [7] [%]","Reduced relative colony forming efficiency, HepG2 (% inhibition of colony forming ability) [8] [%]","Reduced relative colony forming efficiency, HCT116 (% inhibition of colony forming ability) [9] [%]","Reduced relative colony forming efficiency, MIA PaCa-2 (% inhibition of colony forming ability) [10] [%]",other results
"CN(C)/N=N/c1[nH]cnc1C(N)=O [DTIC, dacarbazine, reference compound]",–,–,–,–,–,–,–,–,–,–,Tumour weight as % of saline control [1]: 68%
CCTTGCCCTGAGAGATTCCT (antisense dC*dC*dT*dT*dG*dC*dC*dC*dT*dG*dA*dG*dA*dG*dA*dT*dT*dC*dC*dT) [AS-II-2083-20],84.58,32.03,68.88,89.32,90.65,87.28,82.98,93.64,87.46,71,"Reduced relative colony forming efficiency, T24 (% inhibition of colony forming ability) [4]: 82.43%; Reduced relative colony forming efficiency, T24 (% inhibition of colony forming ability) ([4]; listed as AS-II-2083-20 *): 9.52%; Reduced relative colony forming efficiency, T-47D (% inhibition of colony forming ability) ([5]; listed as AS-II-2083-20 *): 43.61%; Reduced relative colony forming efficiency, A549 (% inhibition of colony forming ability) (A549 lung cell carcinoma; listed as AS-II-2083-20 *): 31.73%; Reduced relative colony forming efficiency, Co1o320 (% inhibition of colony forming ability) ([6]; listed as AS-II-2083-20 *): 52.54%; Reduced relative colony forming efficiency, 11596 (% inhibition of colony forming ability) ([7]; listed as AS-II-2083-20 *): 49.37%; Reduced relative colony forming efficiency, HepG2 (% inhibition of colony forming ability) ([8]; listed as AS-II-2083-20 *): 46.14%; Reduced relative colony forming efficiency, HCT116 (% inhibition of colony forming ability) ([9]; listed as AS-II-2083-20 *): 41.16%"
"CCc1c2c(nc3ccc(OC(=O)N4CCC(N5CCCCC5)CC4)cc13)-c1cc3c(c(=O)n1C2)COC(=O)[C@]3(O)CC [CPT-11, Irinotecan, reference compound]",–,–,–,–,–,–,–,–,–,–,Tumour weight as % of saline control [11]: 36%; Tumour weight as % of saline control [12]: 47%
GAGCAGCCAGGACAGGACGG (antisense dG*dA*dG*dC*dA*dG*dC*dC*dA*dG*dG*dA*dC*dA*dG*dG*dA*dC*dG*dG) [AS-II-151-20],66.75,35.68,41.64,95.39,84.28,90.12,69.12,89.53,78.09,75.38,–
"O=C1c2c(O)ccc(O)c2C(=O)c2c(NCCNCCO)ccc(NCCNCCO)c21 [Novantrone, mitoxantrone]",–,–,–,–,–,–,–,–,–,–,"Tumour weight as % of saline control ([13]; first of two value columns (two independent experiments)): 40%; Tumour weight as % of saline control ([13]; second of two value columns (two independent experiments)): 60%; antitumour effect (tumour weight) ([13]; FIG. 15B, SEQ ID NO:1 10 mg/kg 14 times, mitoxantrone 0.8 mg/kg once a week for four weeks): significant delay of tumour growth; antitumour effect (tumour weight) ([14]; FIG. 14B, SEQ ID NO:1 10 mg/kg 17 times, mitoxantrone 0.8 mg/kg once a week for four weeks): significant delay of tumour growth; Tumour weight as % of saline control ([14]; PC-3 (prostatic), Mouse SCID): 57%"
